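Cells were grown in 96-well plates and exposed to each compound for 48 hours at five concentrations; endpoints were interpolated linearly between bracketing concentrations, or set to the highest concentration if not reached. GI50 marks 50% less growth. Definition used: TGI = concentration required for complete inhibition of growth.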
Key:
Assay in all cases: inhibition of tumour cell growth, NCI panel, 48 h
IGROV1 ovarian = test system: IGROV1 ovarian
786-0 renal = test system: 786-0 renal
PC-3 prostate = test system: PC-3 prostate
HS 578T breast = test system: HS 578T breast
HCC-2998 colon = test system: HCC-2998 colon
HL-60(TB) leukemia = test system: HL-60(TB) leukemia
K-562 leukemia = test system: K-562 leukemia
UACC-62 melanoma = test system: UACC-62 melanoma
NCI-H522 lung = test system: NCI-H522 lung
SF-539 CNS = test system: SF-539 CNS
CCRF-CEM leukemia = test system: CCRF-CEM leukemia
SK-MEL-28 melanoma = test system: SK-MEL-28 melanoma
NCI-H226 lung = test system: NCI-H226 lung
OVCAR-8 ovarian = test system: OVCAR-8 ovarian
MOLT-4 leukemia = test system: MOLT-4 leukemia
NCI-H23 lung = test system: NCI-H23 lung
NCI-H460 lung = test system: NCI-H460 lung
ACHN renal = test system: ACHN renal
EKVX NSCLC = test system: EKVX NSCLC
HOP-62 NSCLC = test system: HOP-62 NSCLC
UACC-257 melanoma = test system: UACC-257 melanoma
SNB-75 CNS = test system: SNB-75 CNS
A549 NSCLC = test system: A549 NSCLC
OVCAR-5 ovarian = test system: OVCAR-5 ovarian
SNB-19 CNS = test system: SNB-19 CNS
BT-549 breast = test system: BT-549 breast
U251 CNS = test system: U251 CNS
UO-31 renal = test system: UO-31 renal
NCI/ADR-RES ovarian = test system: NCI/ADR-RES ovarian
HCT-15 colon = test system: HCT-15 colon
A498 renal = test system: A498 renal
CAKI-1 renal = test system: CAKI-1 renal
T-47D breast = test system: T-47D breast
SF-268 CNS = test system: SF-268 CNS
LOX IMVI melanoma = test system: LOX IMVI melanoma
DU-145 prostate = test system: DU-145 prostate
MALME-3M melanoma = test system: MALME-3M melanoma
HT29 colon = test system: HT29 colon
COLO 205 colon = test system: COLO 205 colon
KM12 colon = test system: KM12 colon
MDA-MB-231 breast = test system: MDA-MB-231 breast
OVCAR-4 ovarian = test system: OVCAR-4 ovarian
RPMI-8226 leukemia = test system: RPMI-8226 leukemia
SW-620 colon = test system: SW-620 colon
SR leukemia = test system: SR leukemia
MDA-MB-435 = test system: MDA-MB-435
SK-MEL-5 melanoma = test system: SK-MEL-5 melanoma
HCT-116 colon = test system: HCT-116 colon
SN12C renal = test system: SN12C renal
SK-OV-3 ovarian = test system: SK-OV-3 ovarian
OVCAR-3 ovarian = test system: OVCAR-3 ovarian
HOP-92 NSCLC = test system: HOP-92 NSCLC
RXF 393 renal = test system: RXF 393 renal
MCF7 breast = test system: MCF7 breast
TK-10 renal = test system: TK-10 renal
SK-MEL-2 melanoma = test system: SK-MEL-2 melanoma
M14 melanoma = test system: M14 melanoma
SF-295 CNS = test system: SF-295 CNS

## CN(C)CCCn1c2nc(=O)[nH]c(=O)c-2nc2cc(Cl)c(Cl)cc21
IGROV1 ovarian
  GI50: 4.65 µM
  TGI: 13.9 µM
786-0 renal
  GI50: 8.79 µM
  TGI: 23.2 µM
PC-3 prostate
  GI50: 2.67 µM
  TGI: 8.8 µM
HS 578T breast
  GI50: 30.9 µM
  TGI: > 100 µM
HCC-2998 colon
  GI50: 12.5 µM
  TGI: 27.9 µM
HL-60(TB) leukemia
  GI50: 3.83 µM
  TGI: 9.97 µM
K-562 leukemia
  GI50: 3.43 µM
  TGI: 15.3 µM
UACC-62 melanoma
  GI50: 4.22 µM
  TGI: 14.9 µM
NCI-H522 lung
  GI50: 2.1 µM
  TGI: 4.23 µM
SF-539 CNS
  GI50: 3.24 µM
  TGI: 12.2 µM
CCRF-CEM leukemia
  GI50: 3.81 µM
  TGI: 18.7 µM
SK-MEL-28 melanoma
  GI50: 18.9 µM
  TGI: 34 µM
NCI-H226 lung
  GI50: 2.58 µM
  TGI: 9.28 µM
OVCAR-8 ovarian
  GI50: 3.16 µM
  TGI: 10.6 µM
MOLT-4 leukemia
  GI50: 4.35 µM
  TGI: 22.8 µM
NCI-H23 lung
  GI50: 8.04 µM
  TGI: 23.5 µM
NCI-H460 lung
  GI50: 14.5 µM
  TGI: > 100 µM
ACHN renal
  GI50: 3.46 µM
  TGI: 11.8 µM
EKVX NSCLC
  GI50: 13.8 µM
  TGI: 28.5 µM
HOP-62 NSCLC
  GI50: 4.14 µM
  TGI: 15.9 µM
UACC-257 melanoma
  GI50: 2.23 µM
  TGI: 5.66 µM
SNB-75 CNS
  GI50: 18 µM
  TGI: 32.5 µM
A549 NSCLC
  GI50: 4.02 µM
  TGI: 16.3 µM
OVCAR-5 ovarian
  GI50: 14.2 µM
  TGI: 30.4 µM
SNB-19 CNS
  GI50: 12.7 µM
  TGI: 26 µM
BT-549 breast
  GI50: 19.5 µM
  TGI: 34.7 µM
U251 CNS
  GI50: 3.08 µM
  TGI: 10.5 µM
UO-31 renal
  GI50: 2.73 µM
  TGI: 10.9 µM
NCI/ADR-RES ovarian
  GI50: 7.9 µM
  TGI: > 100 µM
HCT-15 colon
  GI50: 4.03 µM
  TGI: 21.5 µM
A498 renal
  GI50: 16.1 µM
  TGI: 30.4 µM
CAKI-1 renal
  GI50: 1.83 µM
  TGI: 4.66 µM
T-47D breast
  GI50: 1.76 µM
  TGI: 5.86 µM
SF-268 CNS
  GI50: 5.31 µM
  TGI: 17.6 µM
LOX IMVI melanoma
  GI50: 2.37 µM
  TGI: 7.36 µM
DU-145 prostate
  GI50: 16.4 µM
  TGI: 30 µM
MALME-3M melanoma
  GI50: 9.28 µM
  TGI: 26.8 µM
HT29 colon
  GI50: 2.13 µM
  TGI: 11.9 µM
COLO 205 colon
  GI50: 1.35 µM
  TGI: 2.83 µM
KM12 colon
  GI50: 8.2 µM
  TGI: 26 µM
MDA-MB-231 breast
  GI50: 3.88 µM
  TGI: 14.9 µM
OVCAR-4 ovarian
  GI50: 6.3 µM
  TGI: 18.8 µM
RPMI-8226 leukemia
  GI50: 3.25 µM
  TGI: 12.9 µM
SW-620 colon
  GI50: 2.58 µM
  TGI: 11.7 µM
SR leukemia
  GI50: 6.61 µM
  TGI: 30.5 µM
MDA-MB-435
  GI50: 2.14 µM
  TGI: 5.2 µM
SK-MEL-5 melanoma
  GI50: 1.65 µM
  TGI: 3.12 µM
HCT-116 colon
  GI50: 0.418 µM
  TGI: 6.71 µM
SN12C renal
  GI50: 3.09 µM
  TGI: 10.1 µM
SK-OV-3 ovarian
  GI50: 22.3 µM
  TGI: 65.6 µM
OVCAR-3 ovarian
  GI50: 0.812 µM
  TGI: 6.13 µM
HOP-92 NSCLC
  GI50: 12.2 µM
  TGI: 25.8 µM
RXF 393 renal
  GI50: 13.2 µM
  TGI: 26.3 µM
MCF7 breast
  GI50: 0.398 µM
  TGI: 1.64 µM
TK-10 renal
  GI50: 4.62 µM
  TGI: 14.1 µM
SK-MEL-2 melanoma
  GI50: 4.81 µM
  TGI: 16.1 µM
M14 melanoma
  GI50: 3.68 µM
  TGI: 13 µM

## Fc1ccc2[nH]cc(SSc3c[nH]c4ccc(F)cc34)c2c1
IGROV1 ovarian
  GI50: 5.35 µM
  TGI: 20.8 µM
786-0 renal
  GI50: 6.8 µM
  TGI: 24.8 µM
PC-3 prostate
  GI50: 0.861 µM
  TGI: 12 µM
HS 578T breast
  GI50: 4.22 µM
  TGI: 31.1 µM
HCC-2998 colon
  GI50: 6.34 µM
  TGI: 23.3 µM
HL-60(TB) leukemia
  GI50: 1.83 µM
  TGI: 6.57 µM
K-562 leukemia
  GI50: 3.89 µM
  TGI: > 100 µM
UACC-62 melanoma
  GI50: 2.83 µM
  TGI: 13.8 µM
NCI-H522 lung
  GI50: 2.48 µM
  TGI: 7.67 µM
SF-539 CNS
  GI50: 3.77 µM
  TGI: 14.7 µM
CCRF-CEM leukemia
  GI50: 2.54 µM
  TGI: 8.56 µM
SK-MEL-28 melanoma
  GI50: 5.71 µM
  TGI: 20.3 µM
NCI-H226 lung
  GI50: 2.7 µM
  TGI: 7.86 µM
OVCAR-8 ovarian
  GI50: 5.73 µM
  TGI: 42.8 µM
MOLT-4 leukemia
  GI50: 2.71 µM
  TGI: 33.4 µM
NCI-H23 lung
  GI50: 16.7 µM
  TGI: 77.5 µM
NCI-H460 lung
  GI50: 4.44 µM
  TGI: 19.9 µM
ACHN renal
  GI50: 4.34 µM
  TGI: 34.3 µM
EKVX NSCLC
  GI50: 3.03 µM
  TGI: 15.7 µM
HOP-62 NSCLC
  GI50: 6.33 µM
  TGI: 57.2 µM
UACC-257 melanoma
  GI50: 8.51 µM
  TGI: 25.3 µM
SNB-75 CNS
  GI50: 3.12 µM
  TGI: 15.9 µM
A549 NSCLC
  GI50: 4.98 µM
  TGI: 87.7 µM
OVCAR-5 ovarian
  GI50: 12.7 µM
  TGI: 39.9 µM
SNB-19 CNS
  GI50: 5.21 µM
  TGI: 22.1 µM
BT-549 breast
  GI50: 4.94 µM
  TGI: 24.4 µM
U251 CNS
  GI50: 3.82 µM
  TGI: 28 µM
UO-31 renal
  GI50: 4.83 µM
  TGI: 52.3 µM
NCI/ADR-RES ovarian
  GI50: 7.1 µM
  TGI: > 100 µM
HCT-15 colon
  GI50: 2.1 µM
  TGI: 22 µM
A498 renal
  GI50: 3.61 µM
  TGI: 14.4 µM
CAKI-1 renal
  GI50: 3.52 µM
  TGI: 21.7 µM
T-47D breast
  GI50: 2.54 µM
  TGI: 20.5 µM
SF-268 CNS
  GI50: 5.07 µM
  TGI: 21.9 µM
LOX IMVI melanoma
  GI50: 3.18 µM
  TGI: 17.4 µM
DU-145 prostate
  GI50: 11.6 µM
  TGI: 31.1 µM
MALME-3M melanoma
  GI50: 14.6 µM
  TGI: 34 µM
HT29 colon
  GI50: 5.46 µM
  TGI: 23.9 µM
COLO 205 colon
  GI50: 3.83 µM
  TGI: 17.4 µM
KM12 colon
  GI50: 3.76 µM
  TGI: 16.1 µM
MDA-MB-231 breast
  GI50: 4.17 µM
  TGI: 26.8 µM
OVCAR-4 ovarian
  GI50: 3.87 µM
  TGI: 18.2 µM
RPMI-8226 leukemia
  GI50: 1.5 µM
  TGI: 6.46 µM
SW-620 colon
  GI50: 8.22 µM
  TGI: 26 µM
SR leukemia
  GI50: 2.29 µM
  TGI: 11.3 µM
MDA-MB-435
  GI50: 4.62 µM
  TGI: 21.5 µM
SF-295 CNS
  GI50: 3.04 µM
  TGI: 11.2 µM
SK-MEL-5 melanoma
  GI50: 5.13 µM
  TGI: 18.3 µM
HCT-116 colon
  GI50: 3.98 µM
  TGI: > 100 µM
SK-OV-3 ovarian
  GI50: 6.13 µM
  TGI: 22.8 µM
OVCAR-3 ovarian
  GI50: 4.52 µM
  TGI: 18.3 µM
HOP-92 NSCLC
  GI50: 1.95 µM
  TGI: 7.92 µM
RXF 393 renal
  GI50: 0.659 µM
  TGI: 17 µM
MCF7 breast
  GI50: 3.87 µM
  TGI: 20 µM
TK-10 renal
  GI50: 10.1 µM
  TGI: 24.6 µM
SK-MEL-2 melanoma
  GI50: 3.62 µM
  TGI: 17 µM
M14 melanoma
  GI50: 5.29 µM
  TGI: > 100 µM

— PubChem BioAssay (NCI)
